Experimental findings from US11998532B1 (priority 2023, dated 2024) are described below.

Converted amounts (≈) assume the structure as drawn.

This assay relates to multidrug-resistant (MDR) strains of Mycobacterium tuberculosis. Nature of the assay: microbe, parasite or virus in culture. It counts as cell-based. To be noted: 192 h, read-out: MIC MDR-TB.
In the case of `COc1ccc(Cl)cc1-n1ncc(-c2nnc(-c3ccc(Cl)cc3)o2)c1C` [Compound 7a, 2-(1-(5-Chloro-2-methoxyphenyl)-5-methyl-1H-pyrazol-4-yl)-5-(4-chlorophenyl)-1,3,4-oxadiazole], the MIC stood at 16 µg/mL (≈ 39.9 µM).
As for `COc1ccc(Cl)cc1-n1ncc(-c2nnc(-c3ccc(F)cc3)o2)c1C` [Compound 7b, 2-(1-(5-Chloro-2-methoxyphenyl)-5-methyl-1H-pyrazol-4-yl)-5-(4-fluorophenyl)-1,3,4-oxadiazole], the figure is 8 µg/mL (≈ 20.8 µM); as for `COc1ccc(Cl)cc1-n1ncc(-c2nnc(-c3ccc(C)c(Br)c3)o2)c1C` [Compound 7c, 2-(3-Bromo-4-methylphenyl)-5-(1-(5-chloro-2-methoxyphenyl)-5-methyl-1H-pyrazol-4-yl)-1,3,4-oxadiazole], 64 µg/mL (≈ 139 µM).
As for `COc1ccc(Cl)cc1-n1ncc(-c2nnc(-c3ccccc3)o2)c1C` [Compound 7d, 2-(1-(5-Chloro-2-methoxyphenyl)-5-methyl-1H-pyrazol-4-yl)-5-phenyl-1,3,4-oxadiazole], the figure is 32 µg/mL (≈ 87.2 µM).
With `COc1ccc(Cl)cc1-n1ncc(-c2nnc(-c3ccc(Br)cc3)o2)c1C` [Compound 7e, 2-(4-Bromophenyl)-5-(1-(5-chloro-2-methoxyphenyl)-5-methyl-1H-pyrazol-4-yl)-1,3,4-oxadiazole], the MIC turned out to be 16 µg/mL (≈ 35.9 µM).
`COc1ccc(Cl)cc1-n1ncc(-c2nnc(-c3ccc(Br)c(C)c3)o2)c1C` [Compound 7f, 2-(4-Bromo-3-methylphenyl)-5-(1-(5-chloro-2-methoxyphenyl)-5-methyl-1H-pyrazol-4-yl)-1,3,4-oxadiazole]: the MIC worked out at 64 µg/mL (≈ 139 µM).
As for `COc1ccc(Cl)cc1-n1ncc(-c2nnc(-c3cccc(F)c3)o2)c1C` [Compound 7g, 2-(1-(5-Chloro-2-methoxyphenyl)-5-methyl-1H-pyrazol-4-yl)-5-(3-fluorophenyl)-1,3,4-oxadiazole], the figure is 32 µg/mL (≈ 83.2 µM).
As for `COc1ccc(Cl)cc1-n1ncc(-c2nnc(-c3cc(Cl)cc(Cl)c3)o2)c1C` [Compound 7h, 2-(1-(5-Chloro-2-methoxyphenyl)-5-methyl-1H-pyrazol-4-yl)-5-(3,5-dichlorophenyl)-1,3,4-oxadiazole], the figure is 16 µg/mL (≈ 36.7 µM); as for `COc1ccc(Cl)cc1-n1ncc(-c2nnc(-c3ccc(Cl)c(Cl)c3)o2)c1C` [Compound 7i, 2-(1-(5-Chloro-2-methoxyphenyl)-5-methyl-1H-pyrazol-4-yl)-5-(3,4-dichlorophenyl)-1,3,4-oxadiazole], 32 µg/mL (≈ 73.4 µM); as for `COc1ccc(Cl)cc1-n1ncc(-c2nnc(-c3ccc(C)c([N+](=O)[O-])c3)o2)c1C` [Compound 7j, 2-(1-(5-Chloro-2-methoxyphenyl)-5-methyl-1H-pyrazol-4-yl)-5-(4-methyl-3-nitrophenyl)-1,3,4-oxadiazole], 64 µg/mL (≈ 150 µM).
